Test results published in ChEMBL document CHEMBL3351979, “Total Synthesis and Biological Studies of TMC-205 and Analogues as Anticancer Agents and Activators of SV40 Promoter” (ACS Med Chem Lett, 2014).
Calls of active or inactive are those of the source. The rule behind the calls is not given here.

Key:
[1] = Antiproliferative activity against human HCT116 cells assessed as growth inhibition after 72 hrs by MTS assay; format: functional; details: HCT-116, 72 h
HeLa [2] = experiment: Induction of SV40 promoter-mediated luciferase gene expression in human HeLa cells co-expressing SV40 enhancer at 0.01 to 100 uM after 24 hrs by luminescence assay; format: cell-based; details: Betapolyomavirus macacae
HeLa [3] = experiment: Growth inhibition of human HeLa cells at 0.01 to 100 uM after 24 hrs; format: cell-based
HeLa [4] = experiment: Induction of SV40 promoter-mediated luciferase gene expression in human HeLa cells at 0.01 to 100 uM after 24 hrs by luminescence assay; format: cell-based; details: Betapolyomavirus macacae
[5] = molecular target: T1, Luciferin 4-monooxygenase (Luciola lateralis) (UniProt Q01158); experiment: Inhibition of recombinant firefly luciferase at 0.0001 to 100 uM by […] in presence of varying concentration of D-luciferin; details: Aquatica lateralis
T1 sequence (whole entry): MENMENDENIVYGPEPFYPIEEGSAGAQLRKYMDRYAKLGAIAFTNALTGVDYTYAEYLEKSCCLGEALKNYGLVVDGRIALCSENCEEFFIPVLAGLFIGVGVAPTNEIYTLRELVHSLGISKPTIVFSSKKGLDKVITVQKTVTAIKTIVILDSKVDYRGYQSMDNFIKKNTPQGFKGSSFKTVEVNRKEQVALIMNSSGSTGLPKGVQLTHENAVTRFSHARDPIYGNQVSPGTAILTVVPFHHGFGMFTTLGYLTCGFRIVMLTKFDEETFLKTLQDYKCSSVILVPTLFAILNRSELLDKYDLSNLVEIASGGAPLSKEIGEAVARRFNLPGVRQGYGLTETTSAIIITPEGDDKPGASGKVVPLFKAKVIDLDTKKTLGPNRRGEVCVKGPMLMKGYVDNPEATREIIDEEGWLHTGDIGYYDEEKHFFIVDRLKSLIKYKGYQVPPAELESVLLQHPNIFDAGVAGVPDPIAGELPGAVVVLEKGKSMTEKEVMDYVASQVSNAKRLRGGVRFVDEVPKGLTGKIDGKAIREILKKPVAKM

[6] = molecular target: T1, Luciferin 4-monooxygenase (Luciola lateralis); experiment: Inhibition of recombinant firefly luciferase at 0.0001 to 100 uM by […] in presence of varying concentration of ATP; details: Aquatica lateralis
HeLa [7] = experiment: Induction of SV40 promoter-mediated luciferase gene expression in human HeLa cells at 10 to 100 uM after 24 hrs by RT-PCR analysis; format: cell-based; details: Betapolyomavirus macacae
HeLa [8] = experiment: Induction of SV40 promoter-mediated luciferase gene expression in human HeLa cells after 24 hrs by RT-PCR analysis; format: cell-based; details: Betapolyomavirus macacae
[9] = Stability of the compound by HPLC analysis; format: physicochemical

SMILES | GI50 [1] | Activity (HeLa [2]) | Activity (HeLa [3]) | Activity (HeLa [4]) | also measured
CC(C)CCc1ccc2c(C(=O)O)c[nH]c2c1 | > 500 µM |  |  |  | 
C=C(C)/C=C/c1ccc2c(C(=O)O)c[nH]c2c1 | 68 µM | Active | Non-toxic | inactive | 
Oc1ccc(/C=C/c2cc(O)cc(O)c2)cc1 |  |  |  |  | inhibition [5]: Active; inhibition [6]: Active; Activity (HeLa [7]): Active
CC(=O)/C=C/c1ccc2c(C(=O)C(F)(F)F)c[nH]c2c1 | 14 µM |  |  |  | 
C=C(C)/C=C/c1ccc2c(C(=O)C(F)(F)F)cn(C)c2c1 | > 500 µM |  |  |  | 
C=C(C)/C=C/c1ccc2c(C(=O)C(F)(F)F)c[nH]c2c1 | 39 µM | Active | Non-toxic | inactive | inhibition [5]: inactive; inhibition [6]: Active; Activity (HeLa [8]): Dose-dependent effect; Stability [9]: Stable
C=C(C)/C=C/c1ccc2c(CO)c[nH]c2c1 | 79 µM |  |  |  | 
C=C(C)/C=C/c1ccc2cc[nH]c2c1 | 147 µM |  |  |  | 
CC(O)/C=C/c1ccc2c(C(=O)C(F)(F)F)c[nH]c2c1 (stereo not given) | 8 µM | Active | Non-toxic | inactive | 
CC(C)(O)/C=C/c1ccc2c(C(=O)C(F)(F)F)c[nH]c2c1 | > 500 µM |  |  |  | 
